We go through 20 compounds from ChEMBL document CHEMBL2203233, “Structure-activity relationship exploration of Kv1.3 blockers based on diphenoxylate” (Bioorg Med Chem Lett, 2012).

In general, IC50 refers to the concentration needed to halve the response being measured. A higher IC50 goes with lower potency. By logP is commonly meant the decadic logarithm of the partition coefficient of the neutral form, usually between octanol and water. Low readings indicate a more hydrophilic compound, high ones a more lipophilic compound.

For the first series, the target named is Potassium voltage-gated channel subfamily A member 3 (Homo sapiens, UniProt P22001). Description: Inhibition of Kv1.3 expressed in mouse L929 cells exposed to depolarizing step pulses from -80 mV to +40 mV by whole cell patch clamp method. Format: cell-based.
Potassium voltage-gated channel subfamily A member 3, sequence (P22001 whole entry): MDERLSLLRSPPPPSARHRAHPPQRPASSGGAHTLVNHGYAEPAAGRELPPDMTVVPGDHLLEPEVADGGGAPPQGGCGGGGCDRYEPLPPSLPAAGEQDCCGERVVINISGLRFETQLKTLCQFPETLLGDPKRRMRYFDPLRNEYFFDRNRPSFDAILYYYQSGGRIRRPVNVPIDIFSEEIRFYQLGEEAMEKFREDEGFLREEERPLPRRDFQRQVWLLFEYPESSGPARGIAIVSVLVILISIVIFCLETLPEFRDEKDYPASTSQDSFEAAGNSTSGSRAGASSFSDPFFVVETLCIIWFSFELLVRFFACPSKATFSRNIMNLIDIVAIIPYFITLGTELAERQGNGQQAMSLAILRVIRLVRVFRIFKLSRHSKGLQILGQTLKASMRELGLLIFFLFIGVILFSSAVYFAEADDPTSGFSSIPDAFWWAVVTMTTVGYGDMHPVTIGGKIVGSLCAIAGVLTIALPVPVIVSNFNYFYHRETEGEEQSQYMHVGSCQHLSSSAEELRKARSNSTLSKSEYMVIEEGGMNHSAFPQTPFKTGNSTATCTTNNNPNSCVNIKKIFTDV
Conditions: not given
A general note: In patch-clamp work, channel activity is measured electrically.
For the compound `CCOC(=O)C1(c2ccccc2)CCN(CCCc2ccccc2)CC1`, it took 0.8 µM to reach half-maximal inhibition (IC50).

In the case of `N#CC(CCN1CCN(Cc2ccccc2)CC1)(c1ccccc1)c1ccccc1`, the IC50 came out at 1.27 µM.

`OC1CCN(CCCc2ccccc2)CC1`: the IC50 was more than 100 µM.

Compound `N#CC(CCN1CCCCC1)(c1ccccc1)c1ccccc1` returned an IC50 of 20.5 µM.

The compound `N#CC(CCN1CCN(c2ccccc2)CC1)(c1ccccc1)c1ccccc1` returned an IC50 of 1.86 µM.

The compound `OC1CCN(CCC(c2ccccc2)c2ccccc2)CC1` yielded an IC50 of 75 µM.

As to `CCOC(=O)C1CCN(CCC(C#N)(c2ccccc2)c2ccccc2)CC1`, it took 230 µM to reach half-maximal inhibition (IC50).

The compound `N#CC(CCN1CCC(O)(c2ccccc2)CC1)(c1ccccc1)c1ccccc1` came in with an IC50 of 1.7 µM.

The compound `N#CC(CCN1CCC(N)CC1)(c1ccccc1)c1ccccc1` showed an IC50 of more than 100 µM.

As for `CC(C)(C)OC(=O)NC1CCN(CCC(C#N)(c2ccccc2)c2ccccc2)CC1`, the IC50 is 25 µM.

In turn, `N#CC(CCN1CC=C(c2ccccc2)CC1)(c1ccccc1)c1ccccc1` gave an IC50 of 4.2 µM.

As to `N#CC(CCN1CCC(c2ccccc2)CC1)(c1ccccc1)c1ccccc1`, the IC50 was found to be 2.61 µM.

As for `N#CC(CCN1CCC(O)CC1)(c1ccccc1)c1ccccc1`, 0.75 µM corresponded to half-maximal inhibition (IC50).

`CCOC(=O)C1(c2ccccc2)CCN(CCC(c2ccccc2)c2ccccc2)CC1` yielded an IC50 of 0.9 µM.

As for `COC1CCN(CCC(C#N)(c2ccccc2)c2ccccc2)CC1`, the IC50 is more than 100 µM.

Regarding `CCOC(=O)C1(c2ccccc2)CCN(CCC(C#N)(c2ccccc2)c2ccccc2)CC1` [DIPHENOXYLATE], the IC50 worked out at 5 µM.

Consider `COC(=O)C1(c2ccccc2)CCN(CCC(C#N)(c2ccccc2)c2ccccc2)CC1`, for which the IC50 was determined as 2.52 µM.

Turning to `N#CC(CCN1CCCC(O)C1)(c1ccccc1)c1ccccc1` (stereo not given), the IC50 was more than 100 µM.

With `CC1CCN(CCC(C#N)(c2ccccc2)c2ccccc2)CC1`, inhibition was half-maximal at 5.8 µM (IC50).

Test system in the next series: not listed separately
As to the kind of experiment: Lipophilicity, logP of the compound. Type of series: physicochemical. The following applies: octanol/water.
Take `O=c1ccc2c(OCCCCOc3ccccc3)c3ccoc3cc2o1`: the logP was determined as 4.03.
